The text below walks through data of patent publication US12409189B2, “STAUFEN1 agents and associated methods” (University of Utah Research Foundation, priority 2016, dated 2025).

Holding throughout (type): cell-based, human
Data set [1] relates to autophagic pathway proteins (mTOR, P-mTOR, p62, LC3-II). Nature of the data set: Western blot of autophagic pathway proteins in SH-SY5Y and ATXN2-Q22/58 knock-in cells. Here is the method: (§1) SH-SY5Y cells were cultured in standard DMEM with 10% FBS and 1X penicillin/streptomycin in 5% CO2. Transfection of STAU1 siRNA or STAU1 ASO was accomplished using Lipofectamine transfection reagent using standard conditions. Cells were harvested 3-5 days post transfection.
Protein extracts were prepared by suspending cell pellets in SDS-PAGE sample buffer (Laemmli sample buffer) followed by boiling for 5 min. Equal amount of the extracts were subjected to Western blot analysis to determine the steady-state levels of proteins using the indicated antibodies. Protein extracts were resolved by SDS-PAGE and transferred to Hybond P membranes (Amersham Bioscience Inc., USA). After blocking with 5% skim milk in 0.1% Tween 20/PBS, the membranes were incubated with primary antibodies in 5% skim milk in 0.1% Tween 20/PBS for 2 hrs at room temperature or overnight at 4° C. After several washes with 0.1% Tween 20/PBS, the membranes were incubated with the corresponding secondary antibodies conjugated with HRP in 5% skim milk in 0.1% Tween 20/PBS for 2 hrs at room temperature. Following three additional washes with 0.1% Tween 20/PBS, signals were detected by using the Immobilon Western Chemiluminescent HRP Substrate (Millipore Inc., USA; cat #WBKLSO100) according to the manufacturer's protocol. […] Secondary antibodies were horse anti-mouse IgG-HRP antibody (Vector laboratories, PI-2000), and goat anti-rabbit IgG-HRP antibody (Vector laboratories, PI-1000).
(§2) For over-expression of recombinant proteins, SH-SY5Y cells were seeded on 100 mm or 6 well dishes and incubated overnight. The cells were then transfected with plasmid DNAs and harvested 48 hrs post-transfection and processed as two aliquots for protein and RNA analyses. For siRNA experiments, cells were transfected with siRNAs using lipofectamine 2000, and lymphoblastoid B cells (1×10^6) were electroporated with siRNAs using the Neon transfection system (Invitrogen Inc., USA) according to the manufacturer's protocol and seeded on 6 well plates.
Preparation of protein lysates and western blot analyses. Cellular extracts were prepared by a single-step lysis method. […] Equal amounts of the extracts were used for western blot analyses. […] Only supernatants were used for western blotting. Protein extracts were resolved by SDS-PAGE and transferred to Hybond P membranes (Amersham Bioscience Inc., USA). After blocking with 5% skim milk in 0.1% Tween 20/PBS, the membranes were processed for immunostaining using corresponding primary and secondary antibodies. Signals were detected by using the Immobilon Western Chemiluminescent HRP Substrate (Millipore Inc., USA; cat #WBKLSO100) according to the manufacturer's protocol. The intensity of proteins was determined by using the ImageJ software analyses system and the relative protein abundances were expressed as ratios to β-actin.
On the technique in general: Immunoblotting shows a protein as a band on a membrane.

For another data set, the system named is mTOR and phospho-mTOR. In words: Western blot of mTOR and phospho-mTOR after mTOR RNAi. The note with it: SH-SY5Y and ATXN2-Q22/58 KI cells, 4 days post-transfection.
From the text: siRNAs. The siRNAs used in this study were: All Star Negative Control siRNA (Qiagen Inc., USA; Cat #1027280), human siATXN2 [Hs_ATXN2_2 (Qiagen Inc., USA; Cat #SI00308196)], human siSTAU1: 5′-CCUAUAACUACAACAUGAGdTdT-3′ (SEQ ID NO: 3), and simTOR: 5′-GAGCCUUGUUGAUCCUUAA-3′ (SEQ ID NO: 4). Staufen1 and mTOR siRNA oligonucleotides were synthesized by Invitrogen Inc., USA. The oligonucleotides were deprotected and the complementary strands were annealed.
as §2
(§3) Preparation of protein lysates and western blot analyses. […] Signals were detected by using the Immobilon Western Chemiluminescent HRP Substrate (Millipore Inc., USA; cat #WBKLSO100) according to the manufacturer's protocol. The intensity of proteins was determined by using the ImageJ software analyses system and the relative protein abundances were expressed as ratios to β-actin.

A further data set deals with Staufen1. In words: Western blot of Staufen1 in SH-SY5Y and ATXN2-Q22/58 knock-in cells. The conditions noted are these: ATXN2-Q22/58 KI cells, RNAi. Here is the method: as §1
Protein extracts were prepared by suspending cell pellets in SDS-PAGE sample buffer (Laemmli sample buffer) followed by boiling for 5 min. Equal amount of the extracts were subjected to Western blot analysis to determine the steady-state levels of proteins using the indicated antibodies. Protein extracts were resolved by SDS-PAGE and transferred to Hybond P membranes (Amersham Bioscience Inc., USA). After blocking with 5% skim milk in 0.1% Tween 20/PBS, the membranes were incubated with primary antibodies in 5% skim milk in 0.1% Tween 20/PBS for 2 hrs at room temperature or overnight at 4° C. After several washes with 0.1% Tween 20/PBS, the membranes were incubated with the corresponding secondary antibodies conjugated with HRP in 5% skim milk in 0.1% Tween 20/PBS for 2 hrs at room temperature. Following three additional washes with 0.1% Tween 20/PBS, signals were detected by using the Immobilon Western Chemiluminescent HRP Substrate (Millipore Inc., USA; cat #WBKLSO100) according to the manufacturer's protocol. The antibodies used included ATXN2 mAb [(1:3000), BD Biosciences Inc.; cat #611378], rabbit anti-Staufen antibody (Novus biologicals Inc., NBP1-33202), SQSTM1/p62 antibody (Cell signaling, #5114), LC3B Antibody (Novus biologicals Inc., NB100-2220), mTOR antibody (Cell signaling, #2972), Phospho-mTOR (Ser2448) antibody (Cell signaling #2971), β-Actin mAb conjugated with HRP [(1:10,000), Sigma Inc.; cat #A3858]. Secondary antibodies were horse anti-mouse IgG-HRP antibody (Vector laboratories, PI-2000), and goat anti-rabbit IgG-HRP antibody (Vector laboratories, PI-1000).
as §2, §3

For the substance “5′-GAGCCUUGUUGAUCCUUAA-3′ (listed as RNA, chemistry not given here; listed as Homo sapiens) [simTOR, mTOR siRNA synthesized by Invitrogen]”, the autophagic pathway proteins result in data set [1] (ATXN2-Q22/58 knock-in cells, RNAi transfection) is listed as “improves autophagy marker proteins”. Besides, in data set [1] (control SH-SY5Y cells, mTOR RNAi, 4 days post-transfection), the “Staufen1 and autophagic pathway protein component levels in control cells” value was “without affecting those levels”. In addition, the “mTOR and phospho-mTOR levels” value in the data set with mTOR and phospho-mTOR is listed as “depletion”. Also, the Staufen1 abundance entry with Staufen1 is reported as “reduced Staufen1”.
